{"source": "paper PMC3155278", "about": "(ACS Medicinal Chemistry Letters, 2011)", "tested_on": "REH cells", "test": "Chemotaxis", "type": "cell-based", "conditions": "3 h migration", "data": [{"substance": "SDF-1α", "values": [{"measurement": "Lowest concentration inducing migration", "result": 10, "unit": "pM"}, {"measurement": "Concentration at peak of induced migration (chemotaxis peak)", "setting": "bell-shaped dose-response", "result": 1, "unit": "nM"}]}]}
